Reference: patent US9862762B2, “Monoclonal antibodies which bind human periostin” (MEDIMMUNE, LLC, priority 2014, dated 2018)
“And” between values parts separate entries of the source, which are not always exact repeats. Equal entries are not always repeated.

Legend:
[1] = test system: EPIAIRWAY tissue (normal and asthmatic lung epithelium); test: Periostin levels in IL-13 stimulated […] tissue models; format: cell-based, human; conditions: stimulation with 50 ng/mL IL-13 for 48 hours (FIG. 6)
Description: FIG. 6: Periostin levels in IL-13 Stimulated […]™ Models (Normal and Asthmatic Lung Epithelium). Detection of periostin levels in […]™ tissue obtained from either normal healthy individuals or from asthma patients each receiving different treatments: Advair only; oral and inhaled steroids; no medication; or albuterol only. Periostin levels were determined using the biotin/streptavidin-HRP sandwich ELISA assay using 4B4.B11 as the capture antibody and biotinylated 7B5.C4 as the detection antibody. Samples receiving steroid were pre-treated for 6 hrs with 100 nM budesonide. Samples were either unstimulated or stimulated with 50 ng/mL IL-13±budesonide for 48 hours. Periostin levels increase following stimulation with IL-13. This increase is reduced with steroid treatment.
The assay provided in this disclosure was further used to measure periostin levels in the […]™ tissue model. EpiAirway tissue models were obtained from MatTek corporation. These tissues are a 3-D model of respiratory tract tissue obtained from either normal healthy individuals or from asthma patients. The model was used to evaluate 1 normal donor and 4 asthma donors. The 4 asthma donors each had received different treatments: Advair only; oral and inhaled steroids; no medication; or albuterol only. All tissue samples were cultured in appropriate cell culture media (provided from MatTek) for 24 hrs prior to stimulation. […]

[2] = test system: patients with uncontrolled asthma; conditions: above-median vs below-median baseline serum periostin; cited from earlier work
[3] = test system: adults with uncontrolled, severe asthma; test: Phase 2b study CD-RI-CAT-354-1049 of SC tralokinumab, subgroup analysis by baseline serum periostin; format: in vivo, human; conditions: for Asthma exacerbation rate reduction: tralokinumab 300 mg Q2W vs placebo; for Change from baseline in ACQ-6 / Change from baseline in AQLQ / Percent change from baseline in FEV1: tralokinumab 300 mg Q2W
Description: A 5-week screening/run-in period (Week-5 to -1 [Day-1]) preceded randomisation. Starting at Week-4 (Day-28), patients received a fixed-dose combination product of fluticasone/salmeterol, either as an MDI (230 μg/21 μg) at a dose of 2 inhalations twice per day or as a DPI (500 μg/50 μg) at a dose of one inhalation twice per day. If the patient was also taking additional asthma controller medications (including leukotriene modifiers, theophylline, cromones, a secondary ICS, or oral prednisolone ≦20 mg/day or equivalent OCS), then these medications were to be continued at a stable dose during the screening/run-in and treatment period.
Patients were randomised in a 1:1 ratio to one of 2 cohorts (Cohort 1 or Cohort 2).
The median periostin level used in the study to define high periostin was a baseline serum periostin of ≧23 ng/mL (i.e., high periostin) as measured using an immunoassay.
FIGS. 11A-B; TABLE 4. The median periostin level used in the study to define high periostin was a baseline serum periostin of about ≧23 ng/mL (i.e., high periostin) as measured using an immunoassay. For a continuous representation of AER reduction by periostin level and percent change from baseline in pre-bronchodilator FEV, by serum periostin level, see FIG. 10.

[4] = post hoc, 300 mg Q2W, FEV1 reversibility≧12% and serum periostin≧median at baseline

IL-13: 114 amino acid cytokine used to stimulate periostin expression
Periostin levels [1]: increase

lebrikizumab
increases in FEV1 [2]: larger increases in FEV1

tralokinumab
percent change from baseline in pre-bronchodilator FEV1 over time ([3]; 300 mg Q2W group, through to Week 53, (FIG. 11B)): No significant increases in FEV1 | percent change from baseline in pre-bronchodilator FEV1 over time ([3]; 300 mg Q2W group, through to Week 53, periostin >=median (FIG. 11A)): Relative increases in FEV1 were observed | percent change from baseline in pre-bronchodilator FEV1 over time ([3]; Q2/4W group, through to Week 53, (FIG. 11B)): No significant increases in FEV1 | reduction in serum periostin levels ([3]; patients with baseline serum periostin above the median compared to those below the median): Greater reduction | percentage increase from baseline in pre-bronchodilator FEV1 compared to placebo [3, 4]: 13.85% | reduction in AER [3, 4]: 54% | Asthma exacerbation rate reduction ([3]; Week 53, ITT (N = 150)): 7% | Asthma exacerbation rate reduction ([3]; Week 53, baseline serum Periostin ≧ Median): 25% | Change from baseline in ACQ-6 ([3]; ITT): −0.18 | Change from baseline in AQLQ ([3]; ITT): 0.21 | Change from baseline in ACQ-6 ([3]; Periostin < Median): −0.02 | Change from baseline in AQLQ ([3]; Periostin < Median): 0.21 | Change from baseline in ACQ-6 ([3]; Periostin ≧ Median): −0.23 | Change from baseline in AQLQ ([3]; Periostin ≧ Median): 0.22 | Percent change from baseline in FEV1 ([3]; Week 53, ITT / regardless of serum periostin level): 7.1% | Percent change from baseline in FEV1 ([3]; Week 53, Periostin < Median): 7.06% | Percent change from baseline in FEV1 ([3]; Week 53, Periostin ≧ Median): 6.75% and 6.8%
